Experimental data published in US12404239B2, “Modulators of BCL6 as ligand directed degraders” (Celgene Corporation, priority 2022, dated 2025).

Target: T1, BCL6 (Homo sapiens, UniProt P41182)
T1 construct: HiBiT-tag knocked into endogenous BCL6 locus using CRISPR; endogenous in cells; host or cells: DHL-4_BCL6_HiBiT cells (CRISPR knock-in)
Test: BCL6_HiBiT degradation assay (2 h)
Type: cell-based
Settings: DHL-4_BCL6_HiBiT cells, read-out: YCon (% remaining maximal effect)
Description: A DHL-4 cell line with HiBiT-tag knocked into endogenous BCL6 locus using CRISPR was generated. The DHL-4_BCL6_HiBiT cells were dispensed into 384-well plates (Corning no. 3570) that were pre-spotted with compounds. Compounds were dispensed by an acoustic dispenser (ATS acoustic transfer system from EDC Biosystems) into a 384-well plate in a 10-point dose response curve using 3-fold dilutions starting at 1-10 μM and going down to […]. 25 μL of media (RPMI-1640+10% heat inactivated FBS+1×Pen/Strep) containing 2500 of DHL-4 was dispensed per well. Assay plates were incubated at 37° C. with 5% CO2 for 2 hours. After incubation, 25 μL of the Nano-Glo HiBiT lytic detection working solution (Promega, catalogue no. N3040, Madison, WI) was added to each well and incubated at room temperature for 15-30 min, protected from light. After 30 min, luminescence was read on an Envision or PHERAstar luminescence reader. To determine the EC50 value (the half-maximum effective concentration) and the level of the gradation (Yconstant) of a BCL6 degrader, luminescent signal normalized by DMSO control (Y) and compound concentration (x) was fitted using a four-parameter dose-response model (Y=(A+((B−A)/1+((C/x)^D) in Dotmatics. Fitted value C is the degradation EC50 and the minimum value A is the Y constant.
The degradation of BCL6 at 2 h in DHL-4 results are shown in Table 5, where EC50 is the half maximal effect and Ycon is the % remaining maximal effect.

SMILES	Percent BCL6 remaining at maximal degradation (Ycon)
C[C@H]1C[C@@H](N(C)c2ccc3c(C4CCC(=O)NC4=O)nn(C)c3c2)CCN1c1ncc(Cl)c(Nc2ccc3c(c2)CC(=O)N3C)n1 (stereo partly drawn) [Example 24, 3-(6-(((2S,4S)-1-(5-chloro-4-((1-methyl-2-oxoindolin-5-yl)amino)pyrimidin-2-yl)-2-methylpiperidin-4-yl)(methyl)amino)-1-methyl-1H-indazol-3-yl)piperidine-2,6-dione]	> 60%
C[C@@H]1CN(c2ncc(Cl)c(Nc3ccc4c(c3)CC(=O)N4C)n2)CC[C@H]1Nc1ccc2c(N3CCC(=O)NC3=O)nn(C)c2c1 [Example 141, 1-(6-(((3R,4R)-1-(5-chloro-4-((1-methyl-2-oxoindolin-5-yl)amino)pyrimidin-2-yl)-3-methylpiperidin-4-yl)amino)-1-methyl-1H-indazol-3-yl)dihydropyrimidine-2,4(1H,3H)-dione]	< 20%
CN1C(=O)Cc2cc(Nc3nc(N4CC[C@H](Nc5ccc6c(C7CCC(=O)NC7=O)nn(C)c6c5)[C@H](F)C4)ncc3Cl)ccc21 (stereo partly drawn) [Example 43, 3-(6-(((3R,4S)-1-(5-Chloro-4-((1-methyl-2-oxoindolin-5-yl)amino)pyrimidin-2-yl)-3-fluoropiperidin-4-yl)amino)-1-methyl-1H-indazol-3-yl)piperidine-2,6-dione]	> 60%
CN1C(=O)Cc2cc(Nc3nc(N4CC[C@@H](Nc5ccc6c(C7CCC(=O)NC7=O)nn(C)c6c5)C(F)(F)C4)ncc3Cl)ccc21 (stereo partly drawn) [Example 66, 3-(6-(((R)-1-(5-chloro-4-((1-methyl-2-oxoindolin-5-yl)amino)pyrimidin-2-yl)-3,3-difluoropiperidin-4-yl)amino)-1-methyl-1H-indazol-3-yl)piperidine-2,6-dione]	> 60%

The remaining lines, values ahead:

Percent BCL6 remaining at maximal degradation (Ycon)	SMILES
< 20%	Cc1nc(N2CC[C@@H](Nc3ccc4c(C5CCC(=O)NC5=O)nn(C)c4c3)[C@H](C)C2)nc(Nc2ccc3c(c2)CC(=O)N3C)c1Cl (stereo partly drawn) [Example 122, 3-(6-(((3R,4R)-1-(5-chloro-4-methyl-6-((1-methyl-2-oxoindolin-5-yl)amino)pyrimidin-2-yl)-3-methylpiperidin-4-yl)amino)-1-methyl-1H-indazol-3-yl)piperidine-2,6-dione]
20 to 60%	CN(c1ccc2c(C3CCC(=O)NC3=O)nn(C)c2c1)C1CCN(c2ncc(Cl)c(Nc3ccc4c(c3)N(CCC(C)(C)O)C(=O)C4)n2)CC1 (stereo not drawn) [Example 10, 3-(6-((1-(5-chloro-4-((1-(3-hydroxy-3-methylbutyl)-2-oxoindolin-6-yl)amino)pyrimidin-2-yl)piperidin-4-yl)(methyl)amino)-1-methyl-1H-indazol-3-yl)piperidine-2,6-dione]
< 20%	C[C@@H]1CN(c2ncc(Cl)c(Nc3ccc4c(c3)CC(=O)N4CC(C)(F)F)n2)CC[C@H]1Nc1ccc2c(C3CCC(=O)NC3=O)nn(C)c2c1 (stereo partly drawn) [Example 110, 3-(6-(((3R,4R)-1-(5-chloro-4-((1-(2,2-difluoropropyl)-2-oxoindolin-5-yl)amino)pyrimidin-2-yl)-3-methylpiperidin-4-yl)amino)-1-methyl-1H-indazol-3-yl)piperidine-2,6-dione]
< 20%	C[C@@H]1CN(c2ncc(Cl)c(Nc3ccc4c(c3)CC(=O)N4C)n2)CC[C@H]1Nc1ccc2c(C3CCC(=O)NC3=O)nn(C)c2n1 (stereo partly drawn) [Example 62, 3-(6-(((3R,4R)-1-(5-chloro-4-((1-methyl-2-oxoindolin-5-yl)amino)pyrimidin-2-yl)-3-methylpiperidin-4-yl)amino)-1-methyl-1H-pyrazolo[3,4-b]pyridin-3-yl)piperidine-2,6-dione]
> 60%	CC1CCN(c2ncc(Cl)c(Nc3ccc4c(c3)CC(=O)N4C)n2)CCC1Nc1ccc2c(C3CCC(=O)NC3=O)nn(C)c2c1 (stereo not drawn) [Example 47, 3-(6-((1-(5-chloro-4-((1-methyl-2-oxoindolin-5-yl)amino)pyrimidin-2-yl)-5-methylazepan-4-yl)amino)-1-methyl-1H-indazol-3-yl)piperidine-2,6-dione]
